Laboratory results from US20250109370A1, “METHOD FOR PRODUCING CELL SUPPORT COMPOSITE, METHOD FOR PRODUCING DRUG EVALUATION APPARATUS, DRUG EVALUATION METHOD, AND DRUG EVALUATION APPARATUS” (NIKKISO CO., LTD., priority 2022, published 2025).

Key:
OCT2 = target: T1, OCT2 (Homo sapiens, UniProt O15244); assay: Membrane transportation evaluation using Transwell: cellular intake of radiolabeled Metformin by monolayer of re-seeded aggregate-cultured cells (Test 7); format: in vitro ADME
T1 sequence (O15244 1-555): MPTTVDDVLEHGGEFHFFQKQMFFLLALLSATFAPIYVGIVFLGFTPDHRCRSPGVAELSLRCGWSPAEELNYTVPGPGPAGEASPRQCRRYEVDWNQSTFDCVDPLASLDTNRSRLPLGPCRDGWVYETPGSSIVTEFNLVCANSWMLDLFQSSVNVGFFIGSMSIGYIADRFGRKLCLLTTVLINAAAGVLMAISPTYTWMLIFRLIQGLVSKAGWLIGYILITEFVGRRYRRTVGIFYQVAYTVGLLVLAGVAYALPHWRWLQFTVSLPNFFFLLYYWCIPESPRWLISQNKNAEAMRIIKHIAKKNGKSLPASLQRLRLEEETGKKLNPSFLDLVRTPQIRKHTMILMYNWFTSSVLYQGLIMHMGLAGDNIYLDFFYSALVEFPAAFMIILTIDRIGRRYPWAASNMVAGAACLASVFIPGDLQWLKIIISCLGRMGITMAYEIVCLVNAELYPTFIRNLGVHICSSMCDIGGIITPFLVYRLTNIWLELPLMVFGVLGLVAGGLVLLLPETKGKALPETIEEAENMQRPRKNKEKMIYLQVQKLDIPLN
Procedure: (§1) First, aggregates were formed, and a cell suspension was prepared from the aggregates to thereby re-seed the cells on the insert in the same manner as in Test 2. The seeding density was set to 4×10^4/well (12×10^4 cells/cm^2). Then, on the day after re-seeding (within 18 to 24 hours of re-seeding), membrane transport evaluation was performed using Transwell. In the membrane transport evaluation, radiolabeled Adefovir and radiolabeled Metformin were used. Adefovir is a drug as a substrate for OAT1, that is, a drug that is transported by OAT1. Metformin is a drug as a substrate for OCT2, that is, a drug that is transported by OCT2.
(§2) An assay buffer with each substrate added to a HBSS buffer was added to insert of the Transwell and treated for a predetermined time. For the Adefovir test, the treatment time was 2 minutes. For the Metformin test, the treatment time was 10 minutes. The cells were then retrieved, a cell suspension was prepared, and the radioisotopes in the cell suspension were quantified. As a result, the amount of substrate intake into the cell from the cellular apical membrane side was evaluated. The amount of substrate intake was also evaluated in the same manner when an inhibitor of OAT1, Probenecid, was added to the assay buffer and when an inhibitor of OCT2, Cimetidine, was added to the assay buffer.
(§3) The assay buffer was also added to the well of the Transwell and treated for a predetermined time. For the Adefovir test, the treatment time was 2 minutes. For the Metformin test, the treatment time was 10 minutes. The cells were then retrieved, a cell suspension was prepared, and the radioisotopes in the cell suspensions were quantified. As a result, the amount of substrate intake into the cell from the cellular basement membrane side was evaluated. The amount of substrate intake was also evaluated in the same manner when an inhibitor Probenecid was added to the assay buffer and when an inhibitor Cimetidine was added to the assay buffer.
(§4) In FIG. 15A and FIG. 15B, “A to C” indicates the amount of substrate intake into the cell from the cellular apical membrane side. […]

OAT1 = target: T2, OAT1 (Homo sapiens, UniProt Q4U2R8); assay: Membrane transportation evaluation using Transwell: cellular intake of radiolabeled Adefovir by monolayer of re-seeded aggregate-cultured cells (Test 7); format: in vitro ADME
T2 construct: Adefovir is a drug as a substrate for OAT1, that is, a drug that is transported by OAT1; host or cells: human renal proximal tubule epithelial cells, aggregate-cultured and re-seeded as a monolayer on a Transwell insert
T2 sequence (Q4U2R8 1-563): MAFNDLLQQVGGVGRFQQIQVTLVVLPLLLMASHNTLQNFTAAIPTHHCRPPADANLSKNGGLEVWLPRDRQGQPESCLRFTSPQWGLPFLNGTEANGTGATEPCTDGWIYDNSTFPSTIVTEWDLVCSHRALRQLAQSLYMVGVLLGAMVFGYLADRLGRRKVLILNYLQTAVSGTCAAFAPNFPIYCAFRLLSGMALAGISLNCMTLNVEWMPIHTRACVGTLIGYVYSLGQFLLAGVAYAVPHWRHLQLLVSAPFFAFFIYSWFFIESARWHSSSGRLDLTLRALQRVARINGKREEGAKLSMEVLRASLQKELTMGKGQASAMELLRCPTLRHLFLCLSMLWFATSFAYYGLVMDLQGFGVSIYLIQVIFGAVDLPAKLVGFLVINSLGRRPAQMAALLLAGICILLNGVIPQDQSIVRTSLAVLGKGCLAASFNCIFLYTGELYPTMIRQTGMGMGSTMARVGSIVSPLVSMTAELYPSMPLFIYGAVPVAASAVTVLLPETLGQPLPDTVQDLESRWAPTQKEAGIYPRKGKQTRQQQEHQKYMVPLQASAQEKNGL
Procedure: as §1, §2, §3, §4

SMILES | transporter responsible for intake (OCT2; concluded from decrease with inhibitor Cimetidine) | substrate intake into the cells (OCT2; radiolabeled Metformin in HBSS buffer, 10 minutes, human renal proximal tubule epithelial cells 18 to 24 hours after re-seeding, FIG. 15B) | amount of cellular intake, basement membrane side (B to C) versus apical membrane side (A to C) (OCT2; radiolabeled Metformin, 10 minutes, FIG. 15B) | transporter responsible for intake (OAT1; concluded from decrease with inhibitor Probenecid) | substrate intake into the cells (OAT1; radiolabeled Adefovir in HBSS buffer, 2 minutes, human renal proximal tubule epithelial cells 18 to 24 hours after re-seeding, FIG. 15A) | amount of cellular intake, basement membrane side (B to C) versus apical membrane side (A to C) (OAT1; radiolabeled Adefovir, 2 minutes, FIG. 15A)
CN(C)C(=N)N=C(N)N [Metformin] | due to OCT2 | taken into the cells | higher from the cellular basement membrane side than from the cellular apical membrane side |  |  | 
Nc1ncnc2c1ncn2CCOCP(=O)(O)O [Adefovir] |  |  |  | due to OAT1 | taken into the cells | higher from the cellular basement membrane side than from the cellular apical membrane side
